According to patent US11433036B2, “Oxprenolol compositions for treating cancer” (priority 2013, dated 2022):
Entries after “also recorded” stand apart in the source; their conditions may differ. Like-named read-outs stand apart in the source and are kept apart here.

Assays:
Yoshida Hepatoma Model [1] = details: for change of body weight: 5, 12.5, 25 or 50 mg/kg/day, FIG. 7; for change in body weight: S-oxprenolol 20 mg/kg/day vs racemic mixture 40 mg/kg/day, FIG. 8
Text: (§1) Ascites hepatoma Yoshida AH-130 cells (10^3 cells) were inoculated into about 200 gram male Wistar rats by i.p. injection. Alternatively animals received saline injection only (sham). The day after inoculation animals were randomized into various groups and then received twice daily treatment with either placebo or various test compositions by oral gavage over a period of up to 17 days. The primary endpoints of the study included assessment of body weight, body composition (with and without tumor), and survival. Body composition was monitored by NMR. Echocardiography was used in instances to monitor condition of the heart. Organ weight was assessed at the end of the study (or after death) as a secondary endpoint. In addition, locomotor activity and food intake were also assessed. FIG. 1 provides a diagram showing the design study. R- and S-oxprenolol were manufactured to order by Peakdale Molecular, Peakdale Science Park, Sheffield Road. Chapel-en-le-Frith, High Peak SK23 0PG, UK
To study the effect of the test compounds on body weight, body weight was monitored over time.
To study the effect of the test compounds as mixtures of enantiomers on body weight, body weight was monitored over time.

[2] = tested on: Hela-93 (cervix carcinoma); details: Hela-93 cells; BrdU incorporation and XTT assay; FIG. 20
Procedure: (§2) The effect of the test compounds on tumor growth was also evaluated in an in vitro experiment with various tumor cells, namely, Kelly (neuroblastoma), Hela-93 (cervix carcinoma), and B16V (melanoma). Cell growth was assessed by BrdU incorporation (left of FIG. 20) and XTT assay (right of FIG. 20). Doxorubicin was used as a positive control.

Kelly (neuroblastoma) = details: Kelly cells; BrdU incorporation and XTT assay; FIG. 20
Procedure: as §2

B16V (melanoma) = details: B16V cells; BrdU incorporation and XTT assay; FIG. 20
Procedure: as §2

Yoshida Hepatoma Model [3] = details: for change in fat mass: FIG. 14
Text: as §1
To study the effect of the test compounds on fat mass, the fat mass were determined at the end of the study.
To study the effect of the test compounds as mixtures of enantiomers on fat mass, the fat mass were determined at the end of the study.

Yoshida Hepatoma Model [4] = details: Day 11; for food intake: FIG. 17; for locomotor activity: FIG. 18
Text: as §1
To study the effect of the test compounds on quality of life, parameters of quality of life such as food intake and locomotor activity were assessed at Day 11.

Yoshida Hepatoma Model [5] = details: for change in lean body mass/days alive: FIG. 11B
Text: as §1
To study the effect of the test compounds on lean body mass, lean mass was determined at the end of the study.
To study the effect of the test compounds as mixtures of enantiomers on lean body mass, lean mass was determined at the end of the study.

Yoshida Hepatoma Model [6] = details: 5, 12.5, 25 or 50 mg/kg/day; end of study; FIGS. 13A-13D
Text: as §1
To study the effect of the test compounds on skeletal muscle atrophy and heart weight, the skeletal muscle mass and heart weight were determined at the end of the study.

Yoshida Hepatoma Model [7] = assay: Survival in Yoshida hepatoma model; assay type: in vivo, male Wistar rats; details: for survival: animal inoculated with hepatocellular carcinoma cells, summary statement
Text: as §1
To study the effect of S-oxprenolol and R-oxprenolol on survival, survival was monitored over time.

Yoshida Hepatoma Model [8] = details: 5, 12.5, 25 or 50 mg/kg/day vs placebo; end of study; FIGS. 19A and 19B
Text: as §1
To study the effect of the test compounds on tumor growth, tumor growth was assessed at the end of the study.

[9] = 5, 12.5, 25 or 50 mg/kg/day, FIG. 15A
[10] = 5, 12.5, 25 or 50 mg/kg/day, FIG. 15B
[11] = 5 mg/kg/day or 25 mg/kg/day vs placebo
[12] = 25 mg/kg/day S-oxprenolol vs same amount of R-oxprenolol
[13] = 5, 12.5, 25 or 50 mg/kg/day, FIG. 10
[14] = 25 mg/kg/day or 50 mg/kg/day, oral gavage twice daily, up to 17 days, FIG. 2
[15] = S-oxprenolol 20 mg/kg/day vs racemic mixture 40 mg/kg/day, FIG. 16A
[16] = S-oxprenolol 20 mg/kg/day vs racemic mixture 40 mg/kg/day, FIG. 16B
[17] = S-oxprenolol 20 mg/kg/day vs racemic mixture 40 mg/kg/day, FIG. 11A
[18] = S-oxprenolol 20 mg/kg/day vs racemic mixture 40 mg/kg/day
[19] = S-oxprenolol 20 mg/kg/day vs racemic mixture 40 mg/kg/day (same amount of S-oxprenolol), FIG. 3
[20] = S-oxprenolol vs placebo or S-pindolol 3 mg/kg/day, FIG. 4

`C=CCOc1ccccc1OC[C@H](O)CNC(C)C` [R-oxprenolol, (R)-(+)-oxprenolol, reference compound] was tested. Which “change of body weight” value (Yoshida Hepatoma Model [1]) did it give?
Its value is “rats receiving S-oxprenolol had less body weight loss than those in the placebo group and those administered with R-oxprenolol”.

What about the tumor cell proliferation [2] of the same compound?
The tumor cell proliferation was “neither S-oxprenolol nor R-oxprenolol showed any inhibitor effects on tumor cell proliferation”.

What about the tumor cell proliferation (Kelly (neuroblastoma)) of the same compound?
Its tumor cell proliferation is “neither S-oxprenolol nor R-oxprenolol showed any inhibitor effects on tumor cell proliferation”.

What about the tumor cell proliferation (B16V (melanoma)) of the same compound?
The tumor cell proliferation was “neither S-oxprenolol nor R-oxprenolol showed any inhibitor effects on tumor cell proliferation”.

What about the “change in fat mass” value (Yoshida Hepatoma Model [3]; 5, 12.5, 25 or 50 mg/kg/day) of the same compound?
Its value is “rats receiving S-oxprenolol at 12.5 mg/kg/day or higher had less fat mass loss than those in the placebo group or those receiving R-oxprenolol”.

And the “weight of white adipose tissue (WAT)” value (Yoshida Hepatoma Model [3]; [9])?
Its value is “S-oxprenolol had better effects in reducing fat wasting than R-oxprenolol”.

What about the “weight of brown adipose tissue (BAT)” value (Yoshida Hepatoma Model [3]; [10]) of the same compound?
The value was “both enantiomers of oxprenolol protect BAT mass”.

And the food intake (Yoshida Hepatoma Model [4]; [11])?
The food intake was “higher food intake than those in the placebo group”.

What about the locomotor activity (Yoshida Hepatoma Model [4]; [11]) of the same compound?
The locomotor activity was “higher locomotive activity than those in the placebo group”.

And the food intake (Yoshida Hepatoma Model [4]; [12])?
Its food intake is “Rats receiving 25 mg/kg/day S-oxprenolol had higher food intake than those receiving the same amount of R-oxprenolol”.

And the locomotor activity (Yoshida Hepatoma Model [4]; [12])?
The locomotor activity was “Rats receiving 25 mg/kg/day S-oxprenolol had higher locomotive activity than those receiving the same amount of R-oxprenolol”.

What about the “change in lean body mass” value (Yoshida Hepatoma Model [5]; [13]) of the same compound?
Its value is “rats receiving S-oxprenolol at doses of 12.5 mg/kg/day or higher had less change in lean body mass than those receiving R-oxprenolol”.

And the “mass of skeletal muscle (gastrocnemius, tibialis anterior, soleus, EDL)” value (Yoshida Hepatoma Model [6])?
Its value is “does not have this protective effect”.

What about the percent survival (Yoshida Hepatoma Model [7]; [14]) of the same compound?
The percent survival was “did not show statistically significant improvement on survival over those in the placebo group”.

What about the percent survival (Yoshida Hepatoma Model [7]; R-oxprenolol 5, 12.5, 25 or 50 mg/kg/day, FIG. 6) of the same compound?
Its percent survival is “no statistically significant survival benefit over placebo was observed”.

What about the survival (Yoshida Hepatoma Model [7]) of the same compound?
Its survival is “S-oxprenolol, but not R-oxprenolol, significantly improved survival”.

What about the “tumor growth (tumor volume, total number of cells in a tumor)” value (Yoshida Hepatoma Model [8]) of the same compound?
The value was “did not have any significant effects on tumor growth compared to those in the placebo group”.

How did the “change in body weight” value (Yoshida Hepatoma Model [1]) turn out when `C=CCOc1ccccc1OCC(O)CNC(C)C` (racemic) [racemic mixture of oxprenolol, 1-[2-(allyloxy)phenoxy]-3-(isopropylamino)propan-2-ol, reference compound] was run?
The value was “rats receiving S-oxprenolol had less body weight loss than those receiving the racemic mixture”.

And the “weight of white adipose tissue (WAT)” value (Yoshida Hepatoma Model [3]; [15])?
The value was “rats receiving S-oxprenolol had significantly better effect in preserving the white adipose tissue than those receiving the racemic mixture”.

And the “weight of brown adipose tissue (BAT)” value (Yoshida Hepatoma Model [3]; [16])?
Its value is “rats receiving S-oxprenolol had better effect in preserving the brown adipose tissue than those receiving the racemic mixture”.

And the “change in lean body mass” value (Yoshida Hepatoma Model [5]; [17])?
The value was “rats receiving S-oxprenolol had less change in lean body weight than those receiving the racemic mixture”.

What about the “change in lean body mass/days alive” value (Yoshida Hepatoma Model [5]; [18]) of the same compound?
The value was “rats receiving S-oxprenolol had less change in lean body mass than those receiving the racemic mixture”.

What about the percent survival (Yoshida Hepatoma Model [7]; [19]) of the same compound?
The percent survival was “rats receiving S-oxprenolol had longer survival than those receiving the racemic mixture”.

With `C=CCOc1ccccc1OC[C@@H](O)CNC(C)C` [S-oxprenolol, (S)-(−)-oxprenolol] as the compound, how does the “change of body weight” value (Yoshida Hepatoma Model [1]) read?
The value was “less body weight loss than those in the placebo group and those administered with R-oxprenolol”.

What about the “change in body weight” value (Yoshida Hepatoma Model [1]) of the same compound?
Its value is “less body weight loss than those receiving the racemic mixture”.

And the “change in body weight, comparison of dosages” value (Yoshida Hepatoma Model [1]; S-oxprenolol 12.5, 25, 50, 70 or 100 mg/kg/day, FIG. 9)?
Its value is “rats receiving 50 mg/kg/day or 100 mg/kg/day of the S-oxprenolol had the least body weight loss”.

And the tumor cell proliferation [2]?
Its tumor cell proliferation is “neither S-oxprenolol nor R-oxprenolol showed any inhibitor effects on tumor cell proliferation”.

What about the tumor cell proliferation (Kelly (neuroblastoma)) of the same compound?
Its tumor cell proliferation is “neither S-oxprenolol nor R-oxprenolol showed any inhibitor effects on tumor cell proliferation”.

And the tumor cell proliferation (B16V (melanoma))?
The tumor cell proliferation was “neither S-oxprenolol nor R-oxprenolol showed any inhibitor effects on tumor cell proliferation”.

And the “change in fat mass” value (Yoshida Hepatoma Model [3]; 5, 12.5, 25 or 50 mg/kg/day)?
The value was “rats receiving S-oxprenolol at 12.5 mg/kg/day or higher had less fat mass loss than those in the placebo group or those receiving R-oxprenolol”.

What about the “weight of white adipose tissue (WAT)” value (Yoshida Hepatoma Model [3]; [9]) of the same compound?
Its value is “better effects in reducing fat wasting than R-oxprenolol”.

And the “weight of brown adipose tissue (BAT)” value (Yoshida Hepatoma Model [3]; [10])?
Its value is “both enantiomers of oxprenolol protect BAT mass”.

And the “weight of white adipose tissue (WAT)” value (Yoshida Hepatoma Model [3]; [15])?
Its value is “significantly better effect in preserving the white adipose tissue than those receiving the racemic mixture”.

And the “weight of brown adipose tissue (BAT)” value (Yoshida Hepatoma Model [3]; [16])?
Its value is “better effect in preserving the brown adipose tissue than those receiving the racemic mixture”.

And the food intake (Yoshida Hepatoma Model [4]; [11])?
Its food intake is “higher food intake than those in the placebo group”.

And the locomotor activity (Yoshida Hepatoma Model [4]; [11])?
The locomotor activity was “higher locomotive activity than those in the placebo group”.

What about the food intake (Yoshida Hepatoma Model [4]; [12]) of the same compound?
Its food intake is “higher food intake than those receiving the same amount of R-oxprenolol”.

And the locomotor activity (Yoshida Hepatoma Model [4]; [12])?
The locomotor activity was “higher locomotive activity than those receiving the same amount of R-oxprenolol”.

What about the “change in lean body mass” value (Yoshida Hepatoma Model [5]; [13]) of the same compound?
The value was “rats receiving S-oxprenolol at doses of 12.5 mg/kg/day or higher had less change in lean body mass than those receiving R-oxprenolol”.

What about the “change in lean body mass” value (Yoshida Hepatoma Model [5]; [17]) of the same compound?
Its value is “less change in lean body weight than those receiving the racemic mixture”.

What about the “change in lean body mass/days alive” value (Yoshida Hepatoma Model [5]; [18]) of the same compound?
Its value is “less change in lean body mass than those receiving the racemic mixture”.

What about the “change in lean body mass, comparison of dosages” value (Yoshida Hepatoma Model [5]; S-oxprenolol 12.5, 25, 50, 70 or 100 mg/kg/day, FIG. 12A) of the same compound?
Its value is “rats receiving 100 mg/kg/day of S-oxprenolol had the least change in lean body mass compared to rats receiving other doses”.

What about the “change in lean body mass/days alive, comparison of dosages” value (Yoshida Hepatoma Model [5]; S-oxprenolol 12.5, 25, 50, 70 or 100 mg/kg/day, FIG. 12B) of the same compound?
The value was “rats receiving 100 mg/kg/day of S-oxprenolol had the least change in lean body mass/days alive compared to rats receiving other doses”.

What about the “mass of skeletal muscle (gastrocnemius, tibialis anterior, soleus, EDL)” value (Yoshida Hepatoma Model [6]) of the same compound?
The value was “reduces wasting of individual hind limb muscles independent of their composition of slow and fast twitch muscle fibers”.

And the percent survival (Yoshida Hepatoma Model [7]; [14])?
Its percent survival is “longer survival than those in the placeo group or those receiving R-oxprenolol”.

What about the percent survival (Yoshida Hepatoma Model [7]; [19]) of the same compound?
Its percent survival is “longer survival than those receiving the racemic mixture; also recorded: had an improved effect on survival than the racemic mixture”.

And the “percent survival, comparison of dosages” value (Yoshida Hepatoma Model [7]; S-oxprenolol 5, 12.5, 25, 50, 70 or 100 mg/kg/day, FIGS. 4 and 5)?
Its value is 50 mg/kg/day S-oxprenolol had the best effect on survival among all dosages tested.

What about the percent survival (Yoshida Hepatoma Model [7]; [20]) of the same compound?
Its percent survival is “significantly superior to either placebo or S-pindolol at its preferred dose”.

And the survival (Yoshida Hepatoma Model [7])?
Its survival is “significantly improved survival in animals having cancer”.

And the “tumor growth (tumor volume, total number of cells in a tumor)” value (Yoshida Hepatoma Model [8])?
Its value is “did not have any significant effects on tumor growth compared to those in the placebo group”.

With `CC(C)NC[C@H](O)COc1cccc2[nH]ccc12` [S-pindolol, reference compound] as the compound, how does the percent survival (Yoshida Hepatoma Model [7]; [20]) read?
Its percent survival is “S-oxprenolol was significantly superior to either placebo or S-pindolol at its preferred dose”.
